Like-named read-outs stand apart in the source and are kept apart here. Numbered stars: 1 amine (or outer) side, 2 acyl side, 3 side chain; on linkers, the order of the positions; unused ones are H or OH. Bridge positions count the residues as written; N and C are the ends. Square brackets hold non-standard residues; d marks the D form. Peptide text beside a SMILES is read from it. * marks the point of attachment. X3 = O=C(O)CN1CCN(CC(=O)O)CCN(CC(=O)NCCCOCCOCCOCCCN*)CCN(CC(=O)O)CC1; DOTA = O=C(O)CN1CCN(CC(=O)O)CCN(CC(=O)*)CCN(CC(=O)O)CC1; Trp(5-Br) = N[C@@H](Cc1c[nH]c2ccc(Br)cc12)C(=O)O; Phe(3-Cl) = N[C@@H](Cc1cccc(Cl)c1)C(=O)O; Phe(4-Cl) = N[C@@H](Cc1ccc(Cl)cc1)C(=O)O; Arg(Me) = CNC(=N)NCCC[C@H](N)C(=O)O; Ethylenediamine = C(CN[*:2])N[*:1]; hPhe = N[C@@H](CCc1ccccc1)C(=O)O; 3Pal = N[C@@H](Cc1cccnc1)C(=O)O; X1 = O=C(CC1CCN([*:1])CC1)[*:2]; Cit = NC(=O)NCCC[C@H](N)C(=O)O; Lys(Me) = CNCCCC[C@H](N)C(=O)O; Suc = O=C(CCC(=O)[*:2])[*:1]; Tle = CC(C)(C)[C@H](N)C(=O)O; 4Amb = NCc1ccc(C(=O)O)cc1; Nle = CCCC[C@H](N)C(=O)O; Aib = CC(C)(N)C(=O)O; Guanidino = N=C(N)N*
Tests used:
[1] = molecular target: T1, PSMA-expressing C4-2 cells (Homo sapiens, UniProt Q04609); assay: FACS binding assay (competition with 50 nM PSM-0183); details: for IC50: read-out: pIC50 [C4-2] CAT (converted)
T1 construct: PSMA-expressing C4-2 cells (ATCC, Cat. No. CRL-3314) were cultured in RPMI-1640; host or cells: C4-2 cells
Summary of the method: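 Competition format: fluorescent tracer PSM-0183 (50 nM) displaced from PSMA on C4-2 cells by a test compound titration over 1 h at 4 °C. Bound tracer was quantified as flow-cytometric AF488 median fluorescence after washing. Four-parameter logistic fits of MFI data gave IC50 and pIC50.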

[2] = molecular target: T2, Fc-fusion protein of human PSMA (hPSMA-Fc) (Homo sapiens, UniProt Q04609); assay: Surface plasmon resonance assay (Biacore T200, single cycle kinetic); type: binding; details: for Kd: read-out: pKD CAT (converted)
T2 construct: purchased Acro Biosystems PSA-H5264
Summary of the method: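 KD, expressed as pKD, came from 1:1 Langmuir fits of reference- and buffer-blank-subtracted SPR data. The runs were single-cycle kinetics at 25° C in HBST/0.1% DMSO over human PSMA-Fc, captured to ~1000 RU on a peptide-coated CM5 surface and regenerated with 10 mM glycine pH 1.5.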

[3] = FACS binding, C4-2 cells, competition with 50 nM PSM-0183, category
[4] = SPR, hPSMA-Fc, single cycle kinetic, 25° C., category
[5] = pIC50 category of FACS binding, C4-2 cells
[6] = pKD category for PSMA SPR activity assay, hPSMA-Fc, 25° C.

T2 sequence (Q04609 44-750 limits assumed): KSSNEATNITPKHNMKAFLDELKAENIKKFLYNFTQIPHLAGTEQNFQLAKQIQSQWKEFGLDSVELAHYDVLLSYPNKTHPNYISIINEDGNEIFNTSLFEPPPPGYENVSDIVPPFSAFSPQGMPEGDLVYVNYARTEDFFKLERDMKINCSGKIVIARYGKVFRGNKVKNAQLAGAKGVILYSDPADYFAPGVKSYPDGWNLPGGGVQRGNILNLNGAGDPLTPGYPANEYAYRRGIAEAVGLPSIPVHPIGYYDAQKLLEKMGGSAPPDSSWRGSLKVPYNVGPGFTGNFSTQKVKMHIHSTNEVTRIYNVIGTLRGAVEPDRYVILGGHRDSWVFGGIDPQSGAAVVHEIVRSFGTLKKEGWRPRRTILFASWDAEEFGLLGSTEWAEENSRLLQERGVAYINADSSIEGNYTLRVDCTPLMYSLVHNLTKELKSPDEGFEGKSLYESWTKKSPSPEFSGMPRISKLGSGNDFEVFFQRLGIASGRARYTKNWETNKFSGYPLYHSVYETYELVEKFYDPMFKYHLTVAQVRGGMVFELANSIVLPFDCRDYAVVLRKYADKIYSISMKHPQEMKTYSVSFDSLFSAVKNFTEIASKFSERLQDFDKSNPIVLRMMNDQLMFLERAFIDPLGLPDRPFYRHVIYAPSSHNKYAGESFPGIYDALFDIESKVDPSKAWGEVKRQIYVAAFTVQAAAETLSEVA
T1 sequence (Q04609 whole entry): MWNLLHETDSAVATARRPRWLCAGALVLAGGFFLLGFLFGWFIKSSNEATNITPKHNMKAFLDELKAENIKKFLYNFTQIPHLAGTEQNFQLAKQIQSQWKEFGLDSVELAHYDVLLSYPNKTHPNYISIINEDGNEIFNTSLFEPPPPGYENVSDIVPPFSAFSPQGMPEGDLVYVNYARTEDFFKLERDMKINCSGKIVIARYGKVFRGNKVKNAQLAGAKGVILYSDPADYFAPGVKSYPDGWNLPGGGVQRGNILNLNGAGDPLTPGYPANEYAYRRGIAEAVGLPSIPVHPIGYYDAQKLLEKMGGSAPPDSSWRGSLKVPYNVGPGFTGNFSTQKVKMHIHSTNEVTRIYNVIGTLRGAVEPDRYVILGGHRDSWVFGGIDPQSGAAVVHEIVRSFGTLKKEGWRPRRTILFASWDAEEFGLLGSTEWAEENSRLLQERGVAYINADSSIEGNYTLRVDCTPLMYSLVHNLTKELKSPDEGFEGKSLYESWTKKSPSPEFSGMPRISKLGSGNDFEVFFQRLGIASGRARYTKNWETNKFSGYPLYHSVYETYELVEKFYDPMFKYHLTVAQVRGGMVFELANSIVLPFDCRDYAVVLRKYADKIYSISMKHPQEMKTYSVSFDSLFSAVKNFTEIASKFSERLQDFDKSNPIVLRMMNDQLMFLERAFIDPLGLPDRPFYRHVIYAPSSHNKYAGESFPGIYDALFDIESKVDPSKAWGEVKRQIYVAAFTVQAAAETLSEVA

| Compound | IC50 [1, 3] | Kd [2, 4] | IC50 [1, 5] | Kd [2, 6] | further results |
| --- | --- | --- | --- | --- | --- |
| CCCC[C@H](NC(=O)[C@@H]1CSSC[C@H](NC(=O)[C@H](Cc2ccccc2)NC(=O)[C@H](C)NC(=O)[C@@H](NC(C)=O)[C@@H](C)O)C(=O)N[C@@H](CCCCN)C(=O)N[C@@H](CCCNC(=N)N)C(=O)N[C@@H](C)C(=O)N[C@@H](CC(N)=O)C(=O)N1)C(=O)N[C@H](C(=O)N[C@@H](C)C(N)=O)[C@@H](C)O [PSM-0562, Ac-Thr-Als-Phe-[Cys-Lys-Arg-Ala-Asn-Cys]-Nle-Thr-Ala-NH2] (Ac-TAFCKRANC[Nle]TA-NH2; disulfide 4-9) |  |  |  |  | IC50 ([1]; FACS binding, C4-2 cells, category): 200 to 1260 nM; Kd ([2]; PSMA SPR assay, category): 126 to 501 nM |
| CC(C)(NC(=O)c1ccc(CNC(=O)CN2CCN(CC(=O)O)CCN(CC(=O)O)CCN(CC(=O)O)CC2)cc1)C(=O)N[C@@H](Cc1ccccc1)C(=O)N[C@H]1CSSC[C@@H](C(=O)N[C@H](C(=O)NCCN)C(C)(C)C)NC(=O)[C@H](CC(N)=O)NC(=O)C(C)(C)NC(=O)[C@H](CCCNC(=N)N)NC(=O)[C@H](CCCCN)NC1=O [PSM-0221, DOTA-Pamb-Aib-Phe-[Cys-Lys-Arg-Aib-Asn-Cys]-Tle-en] ({DOTA-4Amb}-[Aib]FCKR[Aib]NC[Tle]-Ethylenediamine; disulfide 3-8) | < 200 nM | < 12.6 nM |  |  |  |
| CNCCCC[C@@H]1NC(=O)[C@@H](NC(=O)[C@H](Cc2c[nH]c3ccc(Br)cc23)NC(=O)C(C)(C)NC(=O)[C@@H](NC(=O)CC2CCN(C(=O)CN3CCN(CC(=O)O)CCN(CC(=O)O)CCN(CC(=O)O)CC3)CC2)[C@@H](C)O)CSSC[C@@H](C(=O)N[C@H](C(=O)N[C@H](C(N)=O)[C@@H](C)O)C(C)(C)C)NC(=O)[C@H](CC(N)=O)NC(=O)C(C)(C)NC(=O)[C@H](CCCNC(=N)NC)NC1=O [PSM-0206, DOTA-Cmp-Thr-Aib-5Brw-[Cys-Lys(Me)-Arg(Me)-Aib-Asn-Cys]-Tle-Thr-NH2] ({DOTA}-[X1]T[Aib][Trp(5-Br)]C[Lys(Me)][Arg(Me)][Aib]NC[Tle]T-NH2; disulfide 5-10) | 1260 to 3160 nM | > 501 nM |  |  |  |
| InDOTA-Cmp-Thr-Aib-Pcf-[Cys-Lys(Me)-Arg(Me)-Aib-Asn-Cys]-Tle-NH2 [PSM-0519] |  |  |  |  | pIC50 [C4-2] CAT [1, 5]: A (pIC50 values >6.7); pKD CAT [2, 6]: A (pKD values >7.9) |
| C[C@@H](O)[C@H](NC(=O)[C@@H](NC(=O)[C@@H]1CSSC[C@H](NC(=O)[C@H](Cc2cccnc2)NC(=O)C(C)(C)NC(=O)[C@@H](NC(=O)CC2CCN(C(=O)CN3CCN(CC(=O)O)CCN(CC(=O)O)CCN(CC(=O)O)CC3)CC2)[C@@H](C)O)C(=O)N[C@@H](CCCCN)C(=O)N[C@@H](CCCNC(N)=O)C(=O)NC(C)(C)C(=O)N[C@@H](CC(N)=O)C(=O)N1)C(C)(C)C)C(N)=O [PSM-0255, DOTA-Cmp-Thr-Aib-Mpa-[Cys-Lys-Cit-Aib-Asn-Cys]-Tle-Thr-NH2] ({DOTA}-[X1]T[Aib][3Pal]CK[Cit][Aib]NC[Tle]T-NH2; disulfide 5-10) | 1260 to 3160 nM | > 501 nM |  |  |  |
| CC(=O)N[C@H](C(=O)NC(C)(C)C(=O)N[C@@H](Cc1ccc(Cl)cc1)C(=O)N[C@H]1CSSC[C@@H](C(=O)N[C@H](C(=O)N[C@H](C(N)=O)[C@@H](C)O)C(C)(C)C)NC(=O)[C@H](CC(N)=O)NC(=O)C(C)(C)NC(=O)[C@H](CCC(=O)NC(=N)N)NC(=O)[C@H](CCCCN)NC1=O)[C@@H](C)O [PSM-0189, Ac-Thr-Aib-Pcf-[Cys-Lys-Gln(Gu)-Aib-Asn-Cys]-Tle-Thr-NH2] (Ac-T[Aib][Phe(4-Cl)]CKE(Guanidino)[Aib]NC[Tle]T-NH2; disulfide 4-9) | < 200 nM | < 12.6 nM |  |  |  |
| C[C@@H](O)[C@H](NC(=O)CN1CCN(CC(=O)O)CCN(CC(=O)O)CCN(CC(=O)O)CC1)C(=O)NC(C)(C)C(=O)N[C@@H](Cc1ccccc1)C(=O)N[C@H]1CSSC[C@@H](C(=O)N[C@H](C(N)=O)C(C)(C)C)NC(=O)[C@H](CC(N)=O)NC(=O)C(C)(C)NC(=O)[C@H](CCCNC(=N)N)NC(=O)[C@H](CCCCN)NC1=O [PSM-0184, DOTA-Thr-Aib-Phe-[Cys-Lys-Arg-Aib-Asn-Cys]-Tle-NH2] ({DOTA}-T[Aib]FCKR[Aib]NC[Tle]-NH2; disulfide 4-9) | < 200 nM | 12.6 to 126 nM |  |  |  |
| CC(=O)N[C@H](C(=O)NC(C)(C)C(=O)N[C@@H](Cc1ccccc1)C(=O)N[C@H]1CSSC[C@@H](C(=O)N[C@H](C(=O)N[C@H](C(N)=O)[C@@H](C)O)C(C)(C)C)NC(=O)[C@H](CC(N)=O)NC(=O)C(C)(C)NC(=O)[C@H](CCCNC(=N)N)NC(=O)[C@H](CCCCN)NC1=O)[C@@H](C)O [PSM-0178, Ac-Thr-Aib-Phe-[Cys-Lys-Arg-Aib-Asn-Cys]-Tle-Thr-NH2] (Ac-T[Aib]FCKR[Aib]NC[Tle]T-NH2; disulfide 4-9) | < 200 nM | < 12.6 nM |  |  |  |
| CC(=O)N[C@H](C(=O)NC(C)(C)C(=O)N[C@@H](Cc1cccc(Cl)c1)C(=O)N[C@H]1CSSC[C@@H](C(=O)N[C@H](C(=O)N[C@H](C(=O)N[C@@H](CC(=O)O)C(N)=O)[C@@H](C)O)C(C)(C)C)NC(=O)[C@H](CC(N)=O)NC(=O)C(C)(C)NC(=O)[C@H](CCCNC(=N)N)NC(=O)[C@H](CCCCN)NC1=O)[C@@H](C)O [PSM-0383, Ac-Thr-Aib-Mcf-[Cys-Lys-Arg-Aib-Asn-Cys]-Tle-Thr-Asp-NH2] (Ac-T[Aib][Phe(3-Cl)]CKR[Aib]NC[Tle]TD-NH2; disulfide 4-9) |  |  | < 200 nM | < 12.6 nM |  |
| C[C@@H](O)[C@H](NC(=O)[C@@H](NC(=O)[C@@H]1CSSC[C@H](NC(=O)[C@H](Cc2ccc(Cl)cc2)NC(=O)C(C)(C)NC(=O)CN2CCN(CC(=O)O)CCN(CC(=O)O)CCN(CC(=O)O)CC2)C(=O)N[C@@H](CCCCN)C(=O)N[C@@H](CCCNC(=N)N)C(=O)NC(C)(C)C(=O)N[C@@H](CC(N)=O)C(=O)N1)C(C)(C)C)C(N)=O [PSM-0290, DOTA-Aib-Pcf-[Cys-Lys-Arg-Aib-Asn-Cys]-Tle-Thr-NH2] ({DOTA}-[Aib][Phe(4-Cl)]CKR[Aib]NC[Tle]T-NH2; disulfide 3-8) |  |  |  |  | IC50 ([1]; FACS binding, PSMA-expressing C4-2 cells, pIC50 category): > 3160 nM; Kd ([2]; PSMA SPR assay, hPSMA-Fc, 25° C., pKD category): > 501 nM |
| CC(=O)N[C@H](C(=O)NC(C)(C)C(=O)N[C@@H](Cc1ccccc1)C(=O)N[C@H]1CSSC[C@@H](C(=O)N[C@H](C(=O)N[C@H](C(=O)N[C@@H](CC(=O)O)C(N)=O)[C@@H](C)O)C(C)(C)C)NC(=O)[C@H](CC(N)=O)NC(=O)C(C)(C)NC(=O)[C@H](CCC(=O)O)NC(=O)[C@H](CCCCN)NC1=O)[C@@H](C)O [PSM-0253, Ac-Thr-Aib-Phe-[Cys-Lys-Glu-Aib-Asn-Cys]-Tle-Thr-Asp-NH2] (Ac-T[Aib]FCKE[Aib]NC[Tle]TD-NH2; disulfide 4-9) | 200 to 1260 nM | 126 to 501 nM |  |  |  |

Continued, in another order:

| IC50 [1, 3] | Kd [2, 4] | IC50 [1, 5] | Kd [2, 6] | Compound | further results |
| --- | --- | --- | --- | --- | --- |
|  |  | < 200 nM | < 12.6 nM | CC(=O)N[C@H](C(=O)NC(C)(C)C(=O)N[C@@H](Cc1ccccc1)C(=O)N[C@H]1CSSC[C@@H](C(=O)N[C@H](C(=O)N[C@H](C(N)=O)[C@@H](C)O)C(C)(C)C)NC(=O)CNC(=O)C(C)(C)NC(=O)[C@H](CCCNC(=N)N)NC(=O)[C@H](CCCCN)NC1=O)[C@@H](C)O [PSM-0479, Ac-Thr-Aib-Phe-[Cys-Lys-Arg-Aib-Gly-Cys]-Tle-Thr-NH2] (Ac-T[Aib]FCKR[Aib]GC[Tle]T-NH2; disulfide 4-9) |  |
|  |  | 1260 to 3160 nM | 126 to 501 nM | CC(C)C[C@H](NC(=O)[C@@H]1CSSC[C@H](NC(=O)[C@H](Cc2ccccc2)NC(=O)[C@H](C)NC(=O)[C@@H](NC(=O)CCC(=O)NCCCOCCOCCOCCCNC(=O)CN2CCN(CC(=O)O)CCN(CC(=O)O)CCN(CC(=O)O)CC2)[C@@H](C)O)C(=O)N[C@@H](CCCCN)C(=O)N[C@@H](CCCNC(=N)N)C(=O)N[C@@H](C)C(=O)N[C@@H](CC(N)=O)C(=O)N1)C(N)=O [PSM-0480, DOTA-Ttds-Thr-Ala-Phe-[Cys-Lys-Arg-Ala-Asn-Cys]-Lou-NH2] ({X3-Suc}-TAFCKRANCL-NH2; disulfide 4-9) |  |
|  |  | 200 to 1260 nM | 12.6 to 126 nM | CC(=O)N[C@H](C(=O)NC(C)(C)C(=O)N[C@@H](Cc1ccccc1)C(=O)N[C@H]1CSSC[C@@H](C(=O)NC(C)(C)C(=O)N[C@H](C(N)=O)[C@@H](C)O)NC(=O)[C@H](CC(N)=O)NC(=O)C(C)(C)NC(=O)[C@H](CCCNC(=N)N)NC(=O)[C@H](CCCCN)NC1=O)[C@@H](C)O [PSM-0394, Ac-Thr-Aib-Phe-[Cys-Lys-Arg-Aib-Asn-Cys]-Aib-Thr-NH2] (Ac-T[Aib]FCKR[Aib]NC[Aib]T-NH2; disulfide 4-9) |  |
|  |  | < 200 nM | < 12.6 nM | CC(=O)N[C@H](C(=O)NC(C)(C)C(=O)N[C@@H](CCc1ccccc1)C(=O)N[C@H]1CSSC[C@@H](C(=O)N[C@H](C(=O)N[C@H](C(N)=O)[C@@H](C)O)C(C)(C)C)NC(=O)[C@H](CC(N)=O)NC(=O)C(C)(C)NC(=O)[C@H](CCCNC(=N)N)NC(=O)[C@H](CCCCN)NC1=O)[C@@H](C)O [PSM-0411, Ac-Thr-Aib-Hfe-[Cys-Lys-Arg-Aib-Asn-Cys]-Tle-Thr-NH2] (Ac-T[Aib][hPhe]CKR[Aib]NC[Tle]T-NH2; disulfide 4-9) |  |
